Laboratory results as given in ChEMBL document CHEMBL1139510, “Early absorption and distribution analysis of antitumor and anti-AIDS drugs: lipid membrane and plasma protein interactions” (J Med Chem, 2005).

Assays:
Type in all cases: ADME
Albumin [1] = biological target: T1, Albumin (Homo sapiens, UniProt P02768); assay: Dissociation rate constant for the interaction between the compound and serum albumin
Albumin [2] = biological target: T1, Albumin; assay: Equilibrium dissociation constant for the interaction between the compound and serum albumin
Albumin [3] = biological target: T1, Albumin; assay: Association rate constant for the interaction between the compound and serum albumin

T1 sequence (P02768 whole entry): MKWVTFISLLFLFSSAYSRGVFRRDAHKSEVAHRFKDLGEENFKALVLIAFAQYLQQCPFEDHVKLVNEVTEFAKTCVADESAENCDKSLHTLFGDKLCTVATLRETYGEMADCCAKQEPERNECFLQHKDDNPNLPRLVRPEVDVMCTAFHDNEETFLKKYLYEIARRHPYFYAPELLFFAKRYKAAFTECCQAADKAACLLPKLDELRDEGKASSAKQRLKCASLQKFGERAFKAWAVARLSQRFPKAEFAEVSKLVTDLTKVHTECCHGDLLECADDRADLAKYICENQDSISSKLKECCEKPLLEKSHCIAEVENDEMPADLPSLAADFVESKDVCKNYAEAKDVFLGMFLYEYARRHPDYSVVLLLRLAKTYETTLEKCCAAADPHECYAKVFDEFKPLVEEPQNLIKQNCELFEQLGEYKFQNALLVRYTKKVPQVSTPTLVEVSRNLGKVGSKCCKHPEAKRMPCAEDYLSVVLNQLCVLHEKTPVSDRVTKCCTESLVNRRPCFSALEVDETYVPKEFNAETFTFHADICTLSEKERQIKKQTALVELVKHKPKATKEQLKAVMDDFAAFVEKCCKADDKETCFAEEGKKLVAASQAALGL

SMILES	Koff1 (Albumin [1]) [s⁻¹]	Kd (Albumin [2]; read-out: KD1) [µM]	Kd (Albumin [2]; read-out: KD2) [µM]	kon (Albumin [3]; read-out: Kon1) [M⁻¹ s⁻¹]	kon (Albumin [3]; read-out: Kon2) [M⁻¹ s⁻¹]	Koff2 (Albumin [1]) [s⁻¹]
Cc1cccc(C)c1OCC(=O)N[C@@H](Cc1ccccc1)[C@@H](O)C[C@H](Cc1ccccc1)NC(=O)[C@H](C(C)C)N1CCCNC1=O [LOPINAVIR]	0.619	24	6	25900	10.1	
CC(=O)O[C@@]12CO[C@@H]1C[C@H](O)[C@@]1(C)C(=O)[C@H](O)C3=C(C)[C@@H](OC(=O)[C@H](O)[C@@H](NC(=O)OC(C)(C)C)c4ccccc4)C[C@@](O)([C@@H](OC(=O)c4ccccc4)[C@H]21)C3(C)C.O.O.O [DOCETAXEL]	1.505	199	2110	7700	43.7	0.069
CC(C)CN(C[C@@H](O)[C@H](Cc1ccccc1)NC(=O)O[C@H]1CCOC1)S(=O)(=O)c1ccc(N)cc1	2.75	124	328	22100	208	0.068
CC(=O)O[C@@]1(C2/C(C)=C(/O)C(=O)C3=C(C)[C@@H](OC(=O)[C@H](O)[C@H](CC(C)C)NC(=O)OC(C)(C)C)C[C@@](O)([C@H]2OC(=O)c2ccccc2)C3(C)C)CO[C@@H]1CCO (stereo partly specified)	1.875	319	1820	5900	33.1	0.045
Cc1c(O)cccc1C(=O)N[C@@H](CSc1ccccc1)[C@H](O)CN1C[C@H]2CCCC[C@H]2C[C@H]1C(=O)NC(C)(C)C	0.413	230	6	1800	12.6	
COC(=O)N[C@H](C(=O)N[C@@H](Cc1ccccc1)[C@@H](O)CN(Cc1ccc(-c2ccccn2)cc1)NC(=O)[C@@H](NC(=O)OC)C(C)(C)C)C(C)(C)C [ATAZANAVIR]	1.43	149	599	9600	41.8	0.025
CC(=O)O[C@H]1C(=O)[C@@]2(C)C([C@H](OC(=O)c3ccccc3)[C@]3(O)C[C@H](OC(=O)[C@H](O)[C@@H](NC(=O)c4ccccc4)c4ccccc4)C(C)=C1C3(C)C)[C@]1(OC(C)=O)CO[C@@H]1C[C@@H]2OC(=O)CCC(=O)O (stereo partly specified)	1.183	192	1170	7300	36.4	0.033
CC(C)(C)NC(=O)[C@@H]1C[C@@H]2CCCC[C@@H]2CN1C[C@@H](O)[C@H](Cc1ccccc1)NC(=O)[C@H](CC(N)=O)NC(=O)c1ccc2ccccc2n1	0.856	34	301	25000	282	0.085
